The values that follow come from PubChem BioAssay AID1033 (Sanford-Burnham Center for Chemical Genomics, 2008).

Values joined by “and” are separate entries in the source; they are usually repeats but may differ in a detail not shown here. Identical values can stand only once. Active and inactive are the calls of the source. How the calls were made is not given here. Bounds are passed on as bounds.

Chain of Chaperone protein DnaK (Escherichia coli (strain K12)) (P0A6Y8 whole entry, looked up): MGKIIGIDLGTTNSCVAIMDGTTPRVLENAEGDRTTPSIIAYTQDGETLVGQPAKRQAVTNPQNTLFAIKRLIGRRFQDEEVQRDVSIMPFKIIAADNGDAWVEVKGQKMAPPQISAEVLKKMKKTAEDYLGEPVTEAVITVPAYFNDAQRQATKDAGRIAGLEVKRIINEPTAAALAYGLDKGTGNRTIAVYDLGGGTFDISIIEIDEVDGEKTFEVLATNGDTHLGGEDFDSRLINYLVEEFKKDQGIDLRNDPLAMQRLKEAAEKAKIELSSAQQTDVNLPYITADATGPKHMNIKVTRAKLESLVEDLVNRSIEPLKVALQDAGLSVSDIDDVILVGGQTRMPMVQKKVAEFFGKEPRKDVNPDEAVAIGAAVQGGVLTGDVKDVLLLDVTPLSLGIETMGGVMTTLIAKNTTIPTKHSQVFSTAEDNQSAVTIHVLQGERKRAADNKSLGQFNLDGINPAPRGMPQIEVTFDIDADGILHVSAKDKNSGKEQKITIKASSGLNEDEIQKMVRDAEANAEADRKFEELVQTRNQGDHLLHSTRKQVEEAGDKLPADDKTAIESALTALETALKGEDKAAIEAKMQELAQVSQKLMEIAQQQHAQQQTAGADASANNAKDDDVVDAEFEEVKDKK

The experiment has as its target Chaperone protein DnaK (Escherichia coli (strain K12)) (UniProt P0A6Y8). Nature of the experiment: E. coli DnaK SBD ligand binding – biophysical, NMR, chaperone (AID 1033). Particulars: Purified DnaK SBD.
For `O=C(/C=C/c1ccco1)NC1=NCCS1`, the Kd is > 4 mM (inactive).

`O=C(O)c1cc2ccccc2[nH]1`: the Kd was > 4 mM (inactive).

As to `CCNC(=S)Nc1c(C)n(C)n(-c2ccccc2)c1=O`, the Kd was > 4 mM (inactive).

For `COc1ccc(-c2c(OC)c3c(OC)c4c(cc3oc2=O)OC(C)(C)C=C4)cc1`, the Kd was > 4 mM (inactive).

On to `Cc1cccn2cc(CNc3ccccc3)nc12`, for which the Kd is > 4 mM (inactive).

With `CCN1CCN(CCCNc2ncnc3nc[nH]c23)CC1`, the Kd is > 4 mM (inactive).

As to `Cc1nc(-c2cccc(-c3noc(C)n3)c2)no1`, the Kd was > 4 mM (inactive).

With `Nc1nnc(-c2ccncc2)s1`, the Kd was > 4 mM (inactive).

As for `CSc1ccccc1NC(=O)c1cccnc1`, the Kd is > 4 mM (inactive).

In the case of `O=C(c1cc(Cl)cc(Cl)c1)N1CCOCC1`, the Kd is > 4 mM (inactive).

For `CCOC(=O)Cc1nc2ccccc2[nH]1`, the Kd is > 4 mM (inactive).

Consider `OC12CC3CC(C1)C1(NCCS1)C(C3)C2` (stereo not given), for which the Kd was > 4 mM (inactive).

In the case of `O=C1CC[C@]23/C=C/C(=O)NCCCCNCCCNC(=O)/C=C/c4ccc(c2c4)O[C@@H]3C1`, the Kd was > 4 mM (inactive).

For `Cc1cccnc1NC1=NCC(C)S1` (stereo not given), the Kd was > 4 mM (inactive).

Turning to `CC1=[N+]([O-])C2(N)CCc3c(no[n+]3[O-])C2(O)C1` (stereo not given), the Kd is > 4 mM (inactive).

As to `NC(=O)c1cn(-c2ccccc2)nc1-c1cccnc1`, the Kd is > 4 mM (inactive).

Consider `NC(=O)CC1Sc2ccccc2NC1=O` (stereo not given), for which the Kd is > 4 mM (inactive).

Consider `COc1ccc(N=C2NC(=O)CS2)cc1`, for which the Kd is > 4 mM (inactive).

Consider `OCc1cc2ccccc2o1`, for which the Kd is > 4 mM (inactive).

As to `O=C(NCc1cccc(Cl)c1)c1ccco1`, the Kd was > 4 mM (inactive).

As to `Cc1nc2ccccc2c(=O)n1NC(=O)C1CCCCC1`, the Kd is > 4 mM (inactive).

Regarding `COc1cc2c(cc1OC)[C@@]13CCN4CC5=CCOC6CC(=O)N2C1[C@H]6[C@H]5C[C@H]43` (stereo not given in full), the Kd was > 4 mM (inactive).

In the case of `NC1CS(=O)(=O)CC1O` (stereo not given), the Kd is > 4 mM (inactive).

Consider `CCOC(=O)c1ccc(F)cc1F`, for which the Kd is > 4 mM (inactive).

Turning to `Cc1cc(NC(=O)Cc2cccs2)no1`, the Kd is > 4 mM (inactive).

For the compound `Cc1ccc(N2CCN(C(=O)c3ccccc3)CC2)c(C)c1`, the Kd was > 4 mM (inactive).

Take `Nc1cccc(C(=O)Nc2ccc(N)cc2Cl)c1`: the Kd is > 4 mM (inactive).

Take `CC1(C)NC(=O)N(CCOc2ccc3c(c2)CCC3)C1=O`: the Kd was > 4 mM (inactive).

In the case of `NCc1ccccc1N1CCOCC1`, the Kd is > 4 mM (inactive).

On to `COc1ccc(-c2nc(N)n(C(C)=O)n2)cc1`, for which the Kd is > 4 mM (inactive).

For `O=C1NCCCC1C(=O)N/N=C/c1ccccc1` (stereo not given), the Kd is > 4 mM (inactive).

On to `COC(=O)Nc1nc2c(s1)CCCC2`, for which the Kd was > 4 mM (inactive).

In the case of `Nc1cccc(S(=O)(=O)N2CCOCC2)c1`, the Kd was > 4 mM (inactive).

`O=C(Cn1cnc2ccccc2c1=O)N1CCOCC1`: the Kd was > 4 mM (inactive).

Take `O=C(O)c1ccc2ncccc2c1`: the Kd is > 4 mM (inactive).

For `Cc1ccc(-c2c(C)n([O-])c(C)c(C)[n+]2=O)cc1`, the Kd is > 4 mM (inactive).

For the compound `Nc1nc(=S)n2c(n1)oc1ccccc12`, the Kd was > 4 mM (inactive).

Take `NC[C@H]1O[C@H](O[C@H]2[C@H](O)[C@@H](O[C@H]3O[C@H](CO)[C@@H](O)[C@H](N)[C@H]3O)[C@H](N)C[C@@H]2N)[C@H](N)[C@@H](O)[C@@H]1O`: the Kd is > 4 mM (inactive).

For `CC1=CC(=O)NC2C=CC=CC12` (stereo not given), the Kd was > 4 mM (inactive).

In the case of `OCc1ccc(N2CCOCC2)nc1`, the Kd was > 4 mM (inactive).

On to `C[n+]1cc2c3c(ccc2c2ccc4cc5c(cc4c21)OCO5)OCO3`, for which the Kd is > 4 mM (inactive).

On to `Cc1c(C(=O)Nc2ccccc2)sc(N)c1C(N)=O`, for which the Kd is > 4 mM (inactive).

With `Cc1nnc(NC(=O)C(C)Sc2nncn2C)s1` (stereo not given), the Kd was > 4 mM (inactive).

Consider `C=C(C)[C@H]1COc2cc3oc(=O)ccc3cc2O1`, for which the Kd was > 4 mM (inactive).

In the case of `Nc1ncc2[nH]cnc2n1`, the Kd is > 4 mM (inactive).

For the compound `CCC1=Nc2ccccc2-c2nnc(SC)nc2O1`, the Kd was > 4 mM (inactive).

As for `O[C@H]1C=C2CCN3Cc4cc5c(cc4C(C23)[C@@H]1O)OCO5` (stereo not given in full), the Kd was > 4 mM (inactive).

On to `O=C1CNC(=O)N1Cc1ccc(F)cc1`, for which the Kd is > 4 mM (inactive).

Regarding `COc1cc2c(cc1OC)-c1cc3ccc(OC)c(OC)c3c[n+]1CC2`, the Kd was > 4 mM (inactive).

As for `O=C1c2cccnc2C(=O)N1Cc1ccc2c(c1)OCO2`, the Kd was > 4 mM (inactive).

For the compound `Cc1nc(SCC#N)c2c3c(sc2n1)CCC3`, the Kd is > 4 mM (inactive).

Consider `O=c1[nH]cnc2nn(-c3ccccc3)nc12`, for which the Kd is > 4 mM (inactive).

In the case of `COc1ccc(C)cc1S(N)(=O)=O`, the Kd is > 4 mM (inactive).

Take `O=C1Nc2ccccc2C12OCCO2`: the Kd was > 4 mM (inactive).

`O=c1sc2ccccc2n1CN1CCOCC1`: the Kd was > 4 mM (inactive).

`COC(=O)c1cc(-c2c(C)nn(-c3ccccc3)c2C)n[nH]1`: the Kd is > 4 mM (inactive).

Regarding `Cc1nc2ccccc2c2c1C(=O)N(C)C2=O`, the Kd was > 4 mM (inactive).

As to `Cc1cc(=O)n2ccc(CN3CCOCC3)c(O)c2n1`, the Kd is > 4 mM (inactive).

In the case of `O=NN1C(=O)c2ccccc2C1=O`, the Kd is > 4 mM (inactive).

As for `Cc1n[nH]c(C)c1-c1ccccc1C(=O)O`, the Kd is > 4 mM (inactive).

Consider `Nc1ncccc1OCc1ccccc1`, for which the Kd is > 4 mM (inactive).

`O=C(O)c1cnc2sc3ccccc3n2c1=O`: the Kd was > 4 mM (inactive).

On to `O=c1[nH]c2sc3c(c2c2nncn12)CCCC3`, for which the Kd was > 4 mM (inactive).

With `CC[C@H](CCC(C)[C@H]1CCC2C3CCC4C[C@@H](O)CC[C@]4(C)C3CC[C@@]21C)C(C)C` (stereo not given in full), the Kd was > 4 mM (inactive).

As for `OCC1CN(Cc2ccccc2)CCO1` (stereo not given), the Kd is > 4 mM (inactive).

For the compound `O=C(O)[C@H](O)[C@@](O)(Cc1ccc(O)cc1)C(=O)O`, the Kd was > 4 mM (inactive).

Consider `OCc1nc2ccccc2s1`, for which the Kd is > 4 mM (inactive).

Consider `CC(=O)Nc1c(Cl)cnn(-c2ccccc2)c1=O`, for which the Kd is > 4 mM (inactive).

In the case of `O=C1NCC(=O)N2CCc3ccccc3C12` (stereo not given), the Kd was > 4 mM (inactive).

Turning to `O=C(NS(=O)(=O)c1ccccc1)c1ccccc1F`, the Kd is > 4 mM (inactive).

On to `CCOC(=O)CSCC(=O)Nc1nccs1`, for which the Kd was > 4 mM (inactive).

As for `OCCNC(=S)Nc1ccc(F)cc1`, the Kd is > 4 mM (inactive).

Regarding `COc1cc(C(C)=O)cc(OC)c1O`, the Kd is > 4 mM (inactive).

For the compound `C[C@]12CCC(=O)C=C1CCC1C2C(=O)C[C@@]2(C)C1CC[C@]2(O)C(=O)CO` (stereo not given in full), the Kd was > 4 mM (inactive).

Take `Cc1ccc(NC(=O)CC2NCCNC2=O)c(C)c1` (stereo not given): the Kd was > 4 mM (inactive).

Take `NNC(=O)c1ccccc1-n1cccc1`: the Kd was > 4 mM (inactive).

With `Nc1nonc1-c1nc2ccccc2[nH]1`, the Kd was > 4 mM (inactive).

On to `Nc1c(/C=C2\C=Nc3ccccc32)c(=O)nc2scnn12`, for which the Kd was > 4 mM (inactive).

In the case of `O=C(O)c1cc(F)cc2c1OCOC2`, the Kd is > 4 mM (inactive).

Regarding `O=C(NCC1CCNCC1)c1ccncc1`, the Kd was > 4 mM (inactive).

For the compound `O=C(Oc1ccc(-c2nnco2)cc1)N1CCCCC1`, the Kd was > 4 mM (inactive).

For `CC1(C)SCC(C(=O)O)N1C=O` (stereo not given), the Kd is > 4 mM (inactive).

For the compound `O=C(O)CCc1ccc2c(c1)OCO2`, the Kd was > 4 mM (inactive).

For `O=C(Nc1ccon1)c1cc2c(s1)CCCC2`, the Kd was > 4 mM (inactive).

Regarding `NCC(O)c1ccc(O)cc1` (stereo not given), the Kd was > 4 mM (inactive).

On to `Cc1nn(-c2ccccc2)nc1C(N)=O`, for which the Kd is > 4 mM (inactive).

Turning to `CCSc1nc(N)c(NC(=O)c2ccco2)c(=O)[nH]1`, the Kd is > 4 mM (inactive).

For the compound `COC(=O)c1ccc(C(=S)N2CCOCC2)cc1`, the Kd is > 4 mM (inactive).

Consider `COc1ccc(C(=O)NCC(=O)O)cc1`, for which the Kd was > 4 mM (inactive).

Turning to `O=C(c1ccco1)N1CCN(c2ccc(Cl)cc2)CC1`, the Kd is > 4 mM (inactive).

With `CCCNC(=O)CSc1nnc(C)s1`, the Kd is > 4 mM (inactive).

Consider `CO[C@H]1[C@@H](O)[C@@H](C)O[C@H](O[C@H]2CCC3(C)C4CCC5(C)[C@@H](C6=CC(=O)OC6)CC[C@]5(O)[C@@H]4CC[C@]3(O)C2)[C@@H]1O` (stereo not given in full), for which the Kd is > 4 mM (inactive).

With `OC1CCCN(Cc2ccccc2)C1` (stereo not given), the Kd was > 4 mM (inactive).

With `COc1cc2c(cc1O)CCNC2C` (stereo not given), the Kd is > 4 mM (inactive).

Take `CCCn1cnn2c(=O)cc(C)nc12`: the Kd was > 4 mM (inactive).

In the case of `Cc1n[nH]c(=O)nc1N1CCN(c2ccccc2)CC1`, the Kd is > 4 mM (inactive).

Consider `CC(=O)Nc1ccc(-c2cn3ccsc3n2)cc1`, for which the Kd was > 4 mM (inactive).

Turning to `N#Cc1nc(-c2cccs2)oc1N1CCOCC1`, the Kd was > 4 mM (inactive).

With `COc1ccccc1-c1c(C)nn2c(C)c(C(C)=O)cnc12`, the Kd is > 4 mM (inactive).

For the compound `Cc1nc2ccccc2c(=O)n1NC(=O)Nc1ccccc1`, the Kd was > 4 mM (inactive).

For the compound `CC(=O)Nc1nnc(-c2ccncc2)s1`, the Kd was > 4 mM (inactive).

As to `O=C(NCc1ccccc1F)c1cccs1`, the Kd is 0.158 mM and < 0.2 mM.

For `COc1ccc(-c2cn[nH]c2N)c(OC)c1`, the Kd was > 4 mM (inactive).

Turning to `COC(=O)c1ccccc1C`, the Kd is > 4 mM (inactive).

On to `Cc1c(O)c(O)cc2c1CC=C1[C@@]2(C)CC[C@@]2(C)C3C[C@](C)(C(=O)O)CC[C@]3(C)CC[C@]12C` (stereo not given in full), for which the Kd is > 4 mM (inactive).
